Assay results as given in patent publication US20170291890A1 (Epizyme, Inc., priority 2014, published 2017).

Biological target: T1, KDM5A (Homo sapiens, UniProt P29375)
T1 construct: C-terminal FLAG-tagged KDM5A^1-1090 was purchased from BPS Biosciences; FLAG (C); purchased BPS Biosciences
T1 sequence (P29375 1-1090): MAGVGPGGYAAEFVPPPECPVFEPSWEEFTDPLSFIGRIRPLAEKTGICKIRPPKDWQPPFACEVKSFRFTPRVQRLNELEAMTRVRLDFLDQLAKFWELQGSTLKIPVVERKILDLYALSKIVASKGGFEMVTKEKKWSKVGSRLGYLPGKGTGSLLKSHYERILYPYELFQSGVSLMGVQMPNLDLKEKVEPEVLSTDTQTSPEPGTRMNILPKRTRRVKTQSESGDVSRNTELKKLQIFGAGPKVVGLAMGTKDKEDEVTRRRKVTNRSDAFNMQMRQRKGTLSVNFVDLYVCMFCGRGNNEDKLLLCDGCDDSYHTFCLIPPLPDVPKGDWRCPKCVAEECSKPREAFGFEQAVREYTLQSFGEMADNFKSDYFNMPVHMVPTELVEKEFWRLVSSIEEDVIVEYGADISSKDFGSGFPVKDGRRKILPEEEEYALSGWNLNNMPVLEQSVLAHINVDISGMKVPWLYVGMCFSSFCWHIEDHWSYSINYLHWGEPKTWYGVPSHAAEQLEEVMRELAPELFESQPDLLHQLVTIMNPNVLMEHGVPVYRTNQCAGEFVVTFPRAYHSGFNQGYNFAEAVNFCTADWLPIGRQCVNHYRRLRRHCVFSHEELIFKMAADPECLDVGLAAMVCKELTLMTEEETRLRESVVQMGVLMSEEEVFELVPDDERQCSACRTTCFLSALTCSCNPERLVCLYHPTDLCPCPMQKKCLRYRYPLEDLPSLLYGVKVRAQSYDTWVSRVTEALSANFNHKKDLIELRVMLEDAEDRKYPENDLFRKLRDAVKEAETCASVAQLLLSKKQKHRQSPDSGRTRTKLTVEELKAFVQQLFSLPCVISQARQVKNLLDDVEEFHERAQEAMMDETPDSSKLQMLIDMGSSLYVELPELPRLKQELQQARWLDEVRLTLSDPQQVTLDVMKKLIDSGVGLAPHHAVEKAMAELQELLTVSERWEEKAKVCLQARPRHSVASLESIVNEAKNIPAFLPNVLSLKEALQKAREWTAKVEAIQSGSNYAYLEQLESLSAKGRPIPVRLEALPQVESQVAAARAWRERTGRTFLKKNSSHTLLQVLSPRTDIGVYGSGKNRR
Assay: KDM5A Assay (SAMDI mass spectrometry demethylase assay)
Type: biochemical
Details: C-terminal FLAG-tagged KDM5A 1-1090; class symbols; read-out: 5A IC50
Experimental: C-terminal FLAG-tagged KDM5A^1-1090 was purchased from BPS Biosciences. Peptides were synthesized by BioPeptide and all other reagents were purchased from Sigma-Aldrich at the highest level of purity possible. Assays were performed in a 50 μL volume in 384-well V-bottom polypropylene microplates (Greiner) at 25° C. Optimized 1× assay buffer was 50 mM HEPES (pH=8.0), 100 μM sodium ascorbate, 20 mM NaCl, 10 μM ammonium iron sulfate, 1 mM tris(2-carboxyethyl)phosphine (TCEP), 0.002% Tween-20, and 0.005% BSG. For compound screening, 35 μL of […] (final concentration, f.c.=20 nM) was added using a Multidrop Combi and preincubated with 1 μL of test compound (f.c.=10 μM) for 30 minutes and subsequently 15 μL of peptide with the following sequence NH2-ART[Kme-3]QTARKSTGGKA[K-Ahx-Biot]-amide (f.c.=250 nM) and 2-oxoglutarate (f.c.=15 μM) was added by Multidrop Combi to begin the reaction. Reactions proceeded for 150 minutes and were stopped by the addition of 5 μL of formic acid (f.c.=0.5%) using a Multidrop Combi and then analyzed by SAMDI Tech Inc.
SAMDI Tech analyzed all reactions using self-assembled monoloayer desorption/ionization technology as previously described (Gerard-Levin Z A, Scholle M D, Eisenberg A H, et al.: High-throughput screening of small molecule libraries using SAMDI mass spectrometry. ACS Comb Sci 2011; 13:347-350). Briefly, a 2 μL sample of the stopped demethylase reactions were transferred to a SAMDI array coated with 384 biotin-neutravidin spots using a 384-channel pipet station. The SAMDI arrays were incubated for 1 h in a humidified chamber, followed by washing of the surface with deionized ultra-filtered water (DIUF) and drying under nitrogen. A matrix of 30 mg/ml 2′,4′,6′-Trihydroxyacetophenone monohydrate (THAP) in acetone was applied using a TPP Mosquito 1.2 μL tip by dispensing 50 nL on each of the 384 spots on the array. SAMDI-MS was run using acquisition method ReflectorPositiveUTX. The % conversion of substrate to product was calculated using the AUC of the substrate and product peptide peaks.
An IC50 value was determined by contacting various concentrations of a test compound with one of the KDM4A, KDM4C or KDMSC enzyme constructs and plotting a dose-response curve which associates the amount of inhibition of the enzyme relative to the concentration of the test compound. From the curve, the IC50 value (which represents the concentration of the test compound necessary to inhibit maximal enzymatic activity by 50%) was determined. Additionally, the slope of the linear range of the plotted curve, which indicates the speed with which the curve rises between the minimum and maximum, was calculated.

| SMILES | IC50 |
| --- | --- |
| COc1ccc(-n2nc(C)c(Nc3cnccc3C(=O)O)c2C)cc1 [Compound 75, 3-((1-(4-methoxyphenyl)-3,5-dimethyl-1H-pyrazol-4-yl)amino)isonicotinic acid] | 10000 to 100000 nM |
| Cc1c(Nc2cnccc2C(=O)O)cnn1C1CCCN(C)CC1 (stereo not drawn) [Compound 112, 3-((5-methyl-1-(1-methylazepan-4-yl)-1H-pyrazol-4-yl)amino)isonicotinic acid] | 100 to 1000 nM |
| Cc1nn(-c2ccccc2)cc1Nc1cnccc1C(=O)O [Compound 19, 3-((3-Methyl-1-phenyl-1H-pyrazol-4-yl)amino)isonicotinic acid] | 1 to 100 nM |
| O=C(O)c1ccncc1Nc1c(-c2ccccc2)cnn1-c1ccccc1 [Compound 43, 3-((1,4-Diphenyl-1H-pyrazol-5-yl)amino)isonicotinic acid] | 10000 to 100000 nM |
| Cc1nn(C2CCN(C(C)C)CC2)cc1Nc1cnccc1C(=O)O [Compound 102, 3-((1-(1-isopropylpiperidin-4-yl)-3-methyl-1H-pyrazol-4-yl)amino)isonicotinic acid] | 100 to 1000 nM |
| Cc1c(Nc2cnccc2C(=O)O)cnn1C1CCN(C(=O)c2ccccc2)CC1 [Compound 98, 3-(1-(1-benzoylpiperidin-4-yl)-5-methyl-1H-pyrazol-4-ylamino) isonicotinic acid] | 1000 to 10000 nM |
| O=C(O)c1ccncc1Nc1nn(CCC(F)(F)F)cc1-c1ccccc1 [Compound 73, 3-((4-phenyl-1-(3,3,3-trifluoropropyl)-1H-pyrazol-3-yl)amino) isonicotinic acid] | 1 to 100 nM |
| COCCn1nc(-c2ccccc2)cc1Nc1cnccc1C(=O)O [Compound 27, 3-((1-(2-Methoxyethyl)-3-phenyl-1H-pyrazol-5-yl)amino) isonicotinic acid] | 100 to 1000 nM |
| Cc1c(-c2ccccc2)nn(C)c1Nc1cnccc1C(=O)O [Compound 53, 3-((1,4-dimethyl-3-phenyl-1H-pyrazol-5-yl)amino)isonicotinic acid] | 1000 to 10000 nM |
| Cc1nn(-c2ccccc2)c(C)c1Nc1cnccc1C(=O)O [Compound 77, 3-((3,5-dimethyl-1-phenyl-1H-pyrazol-4-yl)amino)isonicotinic acid] | 10000 to 100000 nM |
| Cc1c(Nc2cnccc2C(=O)O)cnn1Cc1ccccc1 [Compound 33, 3-((1-benzyl-5-methyl-1H-pyrazol-4-yl)amino)isonicotinic acid] | 100 to 1000 nM |
| O=C(O)c1ccncc1Nc1c(-c2ccc(F)cc2)cnn1CCN1CCC(F)(F)CC1 [Compound 46, 3-((1-(2-(4,4-difluoropiperidin-1-yl)ethyl)-4-(4-fluorophenyl)-1H-pyrazol-5-yl)amino) isonicotinic acid] | 1000 to 10000 nM |
| COC(=O)c1ccncc1Nc1cnn(C2CCN(C(C)C)CC2)c1C [Compound 103, methyl 3-((1-(1-isopropylpiperidin-4-yl)-5-methyl-1H-pyrazol-4-yl)amino)isonicotinate] | 10000 to 100000 nM |
| CN1CCN(CCn2cc(-c3ccccc3)c(Nc3cnccc3C(=O)O)n2)CC1 [Compound 34, 3-((1-(2-(4-Methylpiperazin-1-yl)ethyl)-4-phenyl-1H-pyrazol-3-yl)amino)isonicotinic acid] | 10000 to 100000 nM |
| CN(C)CCCn1cc(-c2ccccc2)c(Nc2cnccc2C(=O)O)n1 [Compound 51, 3-((1-(3-(dimethylamino)propyl)-4-phenyl-1H-pyrazol-3-yl)amino) isonicotinic acid] | 1 to 100 nM |
| Cn1ncc(-c2cccc(F)c2)c1Nc1cnccc1C(=O)O [Compound 10, 3-((4-(3-Fluorophenyl)-1-methyl-1H-pyrazol-5-yl)amino) isonicotinic acid] | 10000 to 100000 nM |
| Cc1nn(-c2ccccc2C#N)cc1Nc1cnccc1C(=O)O [Compound 70, 3-((1-(2-cyanophenyl)-3-methyl-1H-pyrazol-4-yl)amino) isonicotinic acid] | 1000 to 10000 nM |
| Cn1cc(-c2ccc(F)cc2)c(Nc2cnccc2C(=O)O)n1 [Compound 7, 3-((4-(4-Fluorophenyl)-1-methyl-1H-pyrazol-3-yl)amino) isonicotinic acid] | 100 to 1000 nM |
| NCCn1nc(-c2ccccc2)cc1Nc1cnccc1C(=O)O [Compound 26] | 1000 to 10000 nM |
| CN(C)CCn1cc(-c2ccccc2)c(Nc2cnccc2C(=O)O)n1 [Compound 64, 3-((1-(2-(dimethylamino)ethyl)-4-phenyl-1H-pyrazol-3-yl)amino)isonicotinic acid] | 1 to 100 nM |
| Cc1cc(Nc2cnccc2C(=O)O)n(-c2ccccc2)n1 [Compound 61, 3-((3-methyl-1-phenyl-1H-pyrazol-5-yl)amino) isonicotinic acid] | 1000 to 10000 nM |
| COC(=O)c1ccncc1Nc1cn(C2CCN(C(C)C)CC2)nc1C [Compound 101, methyl 3-((1-(1-isopropylpiperidin-4-yl)-3-methyl-1H-pyrazol-4-yl)amino)isonicotinate] | 10000 to 100000 nM |
| Cc1nn(CCN(C)C)cc1Nc1cnccc1C(=O)O [Compound 107, 3-(1-(2-(dimethylamino)ethyl)-3-methyl-1H-pyrazol-4-ylamino) isonicotinic acid] | 100 to 1000 nM |
| Cc1cc(Nc2cnccc2C(=O)O)nn1-c1ccccc1 [Compound 60, 3-((5-methyl-1-phenyl-1H-pyrazol-3-yl)amino)isonicotinic acid] | 1000 to 10000 nM |
| CN(C)CCCn1ncc(-c2ccccc2)c1Nc1cnccc1C(=O)O [Compound 52, 3-((1-(3-(dimethylamino)propyl)-4-phenyl-1H-pyrazol-5-yl)amino) isonicotinic acid] | 1000 to 10000 nM |
| O=C(O)c1ccncc1Nc1cn(-c2ccccc2)nc1-c1ccccc1 [Compound 41, 3-((1,3-Diphenyl-1H-pyrazol-4-yl)amino)isonicotinic acid] | 1000 to 10000 nM |
| O=C(O)c1ccncc1Nc1cn(CCN2CCC(F)(F)CC2)nc1-c1ccccc1 [Compound 17, 3-((1-(2-(4,4-Difluoropiperidin-1-yl)ethyl)-3-phenyl-1H-pyrazol-4-yl)amino)isonicotinic acid] | 100 to 1000 nM |
| O=C(O)c1ccncc1Nc1nn(CCN2CCC(F)(F)CC2)cc1-c1ccc(F)cc1 [Compound 45, 3-((1-(2-(4,4-difluoropiperidin-1-yl)ethyl)-4-(4-fluorophenyl)-1H-pyrazol-3-yl)amino)isonicotinic acid] | 1 to 100 nM |
| O=C(O)c1ccncc1Nc1c(-c2ccccc2)cnn1CCN1CCC(F)(F)CC1 [Compound 15, 3-((1-(2-(4,4-difluoropiperidin-1-yl)ethyl)-4-phenyl-1H-pyrazol-5-yl)amino)isonicotinic acid] | 1000 to 10000 nM |
| CN(C)CCn1ncc(-c2ccccc2)c1Nc1cnccc1C(=O)O [Compound 65, 3-((1-(2-(dimethylamino)ethyl)-4-phenyl-1H-pyrazol-5-yl)amino)isonicotinic acid] | 1000 to 10000 nM |
